How the values were obtained:
ERα = molecular target: T1, ERα (Homo sapiens, UniProt P03372); assay: Protein degradation assay: ERα in MCF-7 cells via western blot; type: cell-based; settings: 6 h; for ERα Protein Degradation 1 nM: 1 nM compound; for ERα Protein Degradation 10 nM: 10 nM compound; for ERα Protein Degradation 100 nM: 100 nM compound
T1 construct: degrading an ERα in MCF-7 cells via a western blot; endogenous in cells; host or cells: MCF-7
T1 sequence (P03372 1-595): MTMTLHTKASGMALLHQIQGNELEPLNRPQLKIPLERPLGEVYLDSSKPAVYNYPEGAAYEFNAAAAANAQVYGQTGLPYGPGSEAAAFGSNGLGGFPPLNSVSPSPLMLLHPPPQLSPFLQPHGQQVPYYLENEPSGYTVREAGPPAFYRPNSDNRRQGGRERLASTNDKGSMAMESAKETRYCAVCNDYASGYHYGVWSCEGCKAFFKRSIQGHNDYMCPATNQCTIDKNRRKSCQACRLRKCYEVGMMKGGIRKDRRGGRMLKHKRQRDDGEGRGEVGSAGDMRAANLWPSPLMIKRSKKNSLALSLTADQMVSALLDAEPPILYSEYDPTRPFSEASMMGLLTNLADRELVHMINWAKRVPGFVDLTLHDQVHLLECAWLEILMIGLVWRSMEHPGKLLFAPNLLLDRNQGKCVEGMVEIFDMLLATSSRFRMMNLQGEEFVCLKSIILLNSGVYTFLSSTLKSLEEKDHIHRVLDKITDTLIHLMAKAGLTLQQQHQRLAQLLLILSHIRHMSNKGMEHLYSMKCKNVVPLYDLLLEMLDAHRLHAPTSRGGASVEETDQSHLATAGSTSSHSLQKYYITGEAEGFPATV
Procedure: A compound provided herein was assessed for its activity in degrading an ERα in MCF-7 cells via a western blot. The MCF7 cells were cultured at 37° C. in a humidified 5% C02 environment in MEM supplemented with 10% FBS with insulin. The cells were seeded in 12-well plates at a density of 300,000 cells per well in maintenance media. Cells were treated with the compound at predetermined concentrations (e.g., 1 nM, 10 nM, 100 nM, and 1 μM) for 6 h. The cells were then washed in PBS and the whole cells were lysed in a cell lysis buffer and incubated for 15 minutes on ice. Cell debris was removed by high-speed centrifugation and the cleared whole cell lysates were prepared for further analysis by a western blot. The whole cell protein extracts were separated on SDS-polyacrylamide gels, transferred to nitrocellulose membranes, and probed with primary antibodies, including anti-ERα antibody and GAPDH antibody for loading control. The membranes were subsequently washed and probed with secondary antibodies for chemiluminescence, followed by imaging on a BIORAD CHEMIDOC Imaging System. The results are summarized in Table 2, where “A” represents a percentage degradation value of no less than 50%; “B” represents a percentage degradation value of less than 50% and no less than 25%; “C” represents a percentage degradation value of less than 25% and no less than 10%; and “D” represents a percentage degradation value of less than 10%.

MCF7 cells = assay: Cell viability assay ([…]-GLO, 6-day treatment); type: cell-based; settings: Homo sapiens, MCF7, 144 h; MCF-7 cells, 6 days, CTG; read-out: Inhibition of Cancerous Cells IC50 MCF-7
Procedure: A compound provided herein was evaluated for its anticancer activity in MCF7 and T47D cells. MCF7 and T47D cells were cultured at 37° C. in a humidified 5% C02 environment in MEM or RPMI, supplemented with 10% FBS with insulin, respectively. The cells were plated in 384-well microplates at a density of 1,000 cells per well in their respective maintenance media. The cells were treated with the compound by a 10-point dose response curve for 6 days, during which, the medium and compound were refreshed once. After the 6-day treatment, the cell viability was assessed using […]-GLO (CTG) reagent. Luminescence was measured with a microplate reader.

| SMILES | IC50 (MCF7 cells) [nM] | ERα Protein Degradation 1 nM (ERα) | ERα Protein Degradation 10 nM (ERα) | ERα Protein Degradation 100 nM (ERα) |
| --- | --- | --- | --- | --- |
| O=C1CCC(N2Cc3sc(C4CCN(CC5CCN(c6ccc([C@@H]7c8ccc(O)cc8CC[C@@H]7c7ccccc7)cc6)CC5)CC4)cc3C2=O)C(=O)N1 (stereo partly drawn) [Compound A10, 3-(2-(1-((1-(4-((1R,2S)-6-hydroxy-2-phenyl-1,2,3,4-tetrahydronaphthalen-1-yl)phenyl)piperidin-4-yl)methyl)piperidin-4-yl)-4-oxo-4,6-dihydro-5H-thieno[2,3-c]pyrrol-5-yl)piperidine-2,6-dione] | 0.82 | D (a percentage degradation value of less than 10%) | D (a percentage degradation value of less than 10%) | D (a percentage degradation value of less than 10%) |
| Cn1nc(C2CCC(=O)NC2=O)c2ccc(N3CCN(CC4CCN(c5ccc([C@@H]6c7ccc(O)cc7CC[C@@H]6c6ccccc6)cc5)CC4)CC3)cc21 (stereo partly drawn) [Compound B25, 3-(6-(4-((1-(4-((1R,2S)-6-Hydroxy-2-phenyl-1,2,3,4-tetrahydronaphthalen-1-yl)-phenyl)piperidin-4-yl)methyl)piperazin-1-yl)-1-methyl-1H-indazol-3-yl)piperidine-2,6-dione] | 1.2 | C (a percentage degradation value of less than 25% and no less than 10%) | B (a percentage degradation value of less than 50% and no less than 25%) | D (a percentage degradation value of less than 10%) |
| Cn1nc(C2CCC(=O)NC2=O)c2ccc(OCC(=O)N3CCN(CC4CCN(c5ccc([C@@H]6c7ccc(O)cc7CC[C@@H]6c6ccccc6)cc5)CC4)CC3)cc21 (stereo partly drawn) [Compound B27, 3-(6-(2-(4-((1-(4-((1R,2S)-6-Hydroxy-2-phenyl-1,2,3,4-tetrahydronaphthalen-1-yl)phenyl)piperidin-4-yl)methyl)piperazin-1-yl)-2-oxoethoxy)-1-methyl-1H-indazol-3-yl)-piperidine-2,6-dione] | 0.99 | D (a percentage degradation value of less than 10%) | B (a percentage degradation value of less than 50% and no less than 25%) | D (a percentage degradation value of less than 10%) |
| O=C1CCC(N2Cc3sc(C4CCN(CCCCOc5ccc([C@@H]6c7ccc(O)cc7CC[C@@H]6c6ccccc6)cc5)CC4)cc3C2=O)C(=O)N1 (stereo partly drawn) [Compound A20, 3-(2-(1-(4-(4-((1R,2S)-6-Hydroxy-2-phenyl-1,2,3,4-tetrahydronaphthalen-1-yl)-phenoxy)butyl)piperidin-4-yl)-4-oxo-4,6-dihydro-5H-thieno[2,3-c]pyrrol-5-yl)piperidine-2,6-dione] | 0.05 | D (a percentage degradation value of less than 10%) | D (a percentage degradation value of less than 10%) | D (a percentage degradation value of less than 10%) |
| O=C1CCC(N2Cc3c(csc3COc3ccc(CNCCCCCOc4ccc([C@@H]5c6ccc(O)cc6CC[C@@H]5c5ccccc5)cc4)cc3)C2=O)C(=O)N1 (stereo partly drawn) [Compound A9, 3-(1-((4-(((5-(4-((1R,2S)-6-hydroxy-2-phenyl-1,2,3,4-tetrahydronaphthalen-1-yl)phenoxy)pentyl)amino)methyl)phenoxy)methyl)-4-oxo-4H-thieno[3,4-c]pyrrol-5(6H)-yl)piperidine-2,6-dione] | 1.4 | B (a percentage degradation value of less than 50% and no less than 25%) | B (a percentage degradation value of less than 50% and no less than 25%) | B (a percentage degradation value of less than 50% and no less than 25%) |
| Cn1nc(C2CCC(=O)NC2=O)c2ccc(OCC(=O)N3CCN(CCCCOc4ccc([C@H]5c6ccc(O)cc6CC[C@H]5c5ccccc5)cc4)CC3)cc21 (stereo partly drawn) [Compound B24, 3-(6-(2-(4-(4-(4-((1S,2R)-6-Hydroxy-2-phenyl-1,2,3,4-tetrahydronaphthalen-1-yl)phenoxy)butyl)piperazin-1-yl)-2-oxoethoxy)-1-methyl-1H-indazol-3-yl)piperidine-2,6-dione] | 66 | C (a percentage degradation value of less than 25% and no less than 10%) | C (a percentage degradation value of less than 25% and no less than 10%) | C (a percentage degradation value of less than 25% and no less than 10%) |
| O=C1CCC(N2Cc3c(csc3COc3ccc(CNCCCCCOc4ccc([C@@H]5c6ccc(O)cc6CC[C@@H]5c5ccccc5)cc4)cc3)C2=O)C(=O)N1 (stereo in doubt) [Compound A17, 3-(1-((4-(((5-(4-((1R,2S)-6-Hydroxy-2-phenyl-1,2,3,4-tetrahydronaphthalen-1-yl)phenoxy)pentyl)amino)methyl)phenoxy)methyl)-4-oxo-4H-thieno[3,4-c]pyrrol-5(6H)-yl)piperidine-2,6-dione] | 1160 | B (a percentage degradation value of less than 50% and no less than 25%) | C (a percentage degradation value of less than 25% and no less than 10%) | D (a percentage degradation value of less than 10%) |

Now from value to molecule, other results behind:

| IC50 (MCF7 cells) [nM] | SMILES | ERα Protein Degradation 1 nM (ERα) | ERα Protein Degradation 10 nM (ERα) | ERα Protein Degradation 100 nM (ERα) |
| --- | --- | --- | --- | --- |
| 136 | Cn1nc(C2CCC(=O)NC2=O)c2ccc(OCC(=O)N3CCN(CCCCOc4ccc(CC5(C)C(c6ccc(O)cc6)=Nc6ccc(O)cc65)cc4)CC3)cc21 (stereo not shown) [Compound D5, 3-(6-(2-(4-(4-(4-((5-Hydroxy-2-(4-hydroxyphenyl)-3-methyl-3H-indol-3-yl)-methyl)phenoxy)butyl)piperazin-1-yl)-2-oxoethoxy)-1-methyl-1H-indazol-3-yl)piperidine-2,6-dione] | C (a percentage degradation value of less than 25% and no less than 10%) | D (a percentage degradation value of less than 10%) | C (a percentage degradation value of less than 25% and no less than 10%) |
| 1.7 | Cc1c(-c2ccc(O)cc2)n(Cc2ccc(OCCCCN3CCN(C(=O)COc4ccc(C5CCC(=O)NC5=O)cc4)CC3)cc2)c2ccc(O)cc12 (stereo not shown) [Compound E24, 3-(4-(2-(4-(4-(4-((5-hydroxy-2-(4-hydroxyphenyl)-3-methyl-1H-indol-1-yl)-methyl)phenoxy)butyl)piperazin-1-yl)-2-oxoethoxy)phenyl)piperidine-2,6-dione] | D (a percentage degradation value of less than 10%) | D (a percentage degradation value of less than 10%) | D (a percentage degradation value of less than 10%) |
| 569 | CC1(Cc2ccc(OCCCCN3CCN(C(=O)COc4ccc5c(c4)CN(C4CCC(=O)NC4=O)C5=O)CC3)cc2)C(c2ccc(O)cc2)=Nc2ccc(O)cc21 (stereo not shown) [Compound D3, 3-(5-(2-(4-(4-(4-((5-Hydroxy-2-(4-hydroxyphenyl)-3-methyl-3H-indol-3-yl)-methyl)phenoxy)butyl)piperazin-1-yl)-2-oxoethoxy)-1-oxoisoindolin-2-yl)piperidine-2,6-dione] | D (a percentage degradation value of less than 10%) | D (a percentage degradation value of less than 10%) | D (a percentage degradation value of less than 10%) |

Reference: patent US20240368121A1, “ESTROGEN RECEPTOR DEGRADERS, PHARMACEUTICAL COMPOSITIONS THEREOF, AND THEIR THERAPEUTIC APPLICATIONS” (BioTheryX, Inc., priority 2021, published 2024)
